EP3212211B1, “MILK PROTEIN HYDROLYSATE FOR USE IN THE TREATMENT OF DIARRHOEA” (Laboratorios Ordesa, S.l., priority 2014, dated 2016)
Values joined by “and” are separate entries in the source; they are usually repeats but may differ in a detail not shown here. Identical values can stand only once. No end group written: not given here.

Legend:
[1] = molecular target: T1, recombinant human neprilysin (rhNeprilysin) (Homo sapiens, UniProt P08473); assay: neprilysin inhibition, fluorogenic enzymatic (FRET) assay; assay type: biochemical; settings: for IC50: pure substance, 37 °C
T1 construct: purchased R&D Systems, Inc
T1 sequence (P08473 whole entry): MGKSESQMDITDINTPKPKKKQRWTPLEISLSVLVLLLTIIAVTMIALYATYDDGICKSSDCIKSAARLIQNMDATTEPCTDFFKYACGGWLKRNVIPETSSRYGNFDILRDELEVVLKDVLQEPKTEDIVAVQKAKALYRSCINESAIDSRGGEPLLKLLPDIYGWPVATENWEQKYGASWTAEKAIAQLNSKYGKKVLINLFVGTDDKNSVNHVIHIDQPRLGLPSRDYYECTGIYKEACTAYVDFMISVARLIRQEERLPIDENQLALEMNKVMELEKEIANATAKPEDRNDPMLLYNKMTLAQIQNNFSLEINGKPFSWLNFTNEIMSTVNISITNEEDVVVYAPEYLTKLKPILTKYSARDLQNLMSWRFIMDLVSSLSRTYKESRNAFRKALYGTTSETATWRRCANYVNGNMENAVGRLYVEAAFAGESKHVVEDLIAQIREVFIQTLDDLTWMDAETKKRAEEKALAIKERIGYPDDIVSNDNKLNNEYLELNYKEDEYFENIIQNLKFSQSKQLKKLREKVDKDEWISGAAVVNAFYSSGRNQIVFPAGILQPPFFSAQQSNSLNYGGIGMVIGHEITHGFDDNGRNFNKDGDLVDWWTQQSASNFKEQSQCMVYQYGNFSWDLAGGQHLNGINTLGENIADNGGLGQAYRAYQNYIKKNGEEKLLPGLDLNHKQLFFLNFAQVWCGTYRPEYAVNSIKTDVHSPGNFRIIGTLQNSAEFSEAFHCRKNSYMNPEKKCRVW
Protocol: All samples are assayed in triplicate.

rats = assay: intestine motility test (activated charcoal transit); assay type: in vivo; settings: for intestinal transit in relation to RS group: product 30 minutes before charcoal, H1, H2 8.5 g/Kg, P+ (LW) 0.8 g/Kg, L 6.5 g/Kg, loperamide 2 mg/Kg p.o., read 20 minutes after charcoal
Protocol: Intestine motility was evaluated in rats as in Example 7. The groups were coincident (n=7) except of the omission of R group and that only P^+ (LW 0.8 g/Kg) was tested. The control group included rats treated with loperamide (Lop) at a dose of 2 mg/Kg, and rats treated with the vehicle (water) and with non-hydrolysed cow milk (L group). Loperamide is an anti-diarrhoeic drug that delays intestinal transit and it acts as a positive control in this experiment.
After 30 minutes of the administration of the products under study (P+, L, Lop, H1, H2, water) intestine transit was determined by administering 1 ml of a suspension at 1 % w/v of activated charcoal (Sigma-Aldrich®) in arabic gum (Acofar®, 5 %).
20 minutes later, animals were sacrificed by exsanguination and small intestine was extracted (from pilor to ileocecal). Small intestine was longitudinally disposed over a clean surface. Intestinal distance of charcoal was measured as well as the total intestine length. Results for each animal were expressed as distance of charcoal in relation to intestine length, in percentage form.
Statistical analysis was performed by PASW®Statistics 18 software. Global comparative analysis between groups was performed with Kruskal-Wallis test and further with the non-parametric U test of Mann-Whitney. It was stablished as meaningful level a p value of p<0.05.

female Wistar rats = assay: castor oil induced acute diarrhoea in rats; assay type: in vivo; settings: p.o. 1 h before castor oil, H1, H2 8.5 g/Kg
Protocol: The effect of the hydrolysates of the invention was tested in a model of induced acute diarrhoea. For this test, female Wistar rats were used (8 weeks old). Animals were provided with 7 weeks by Harlan (Barcelona, Spain) and they rested in the Animal Experimental Service of Facultad de […] de Barcelona (UB) under controlled temperature and humidity conditions with a light:dark cycle of 12 h:12 h with water and food ad libitum. The assay has been conducted under institutional guidelines for animal experimentation established by the Ethical Commitment of Animal Experimentation in the Universidad de Barcelona (CEEA-UB). […] Haematocrit was also determined as basal value before inducing diarrhoea. […] Although the weight was reduced during the assay, the loss was detected in all groups, and it is hypothesized due to the starving period. No differences among groups were detected in the haematocrit. […] The following variables were determined: number of defecations, type (consistency, colour, form, presence or absence of mucus), punctuation (0-4 according to a diarrhoea index), presence or absence of diarrhoea. There were also determined the diarrhoea index (ID), diarrhoea incidence, the percentage of diarrhoeic defecations, as well as the severity of diarrhoeic process. […] The percentage of diarrhoeic defecations (ID≥2) was also determined for each group. […]

[2] = cited from earlier work
[3] = molecular target: Angiotensin Converting Enzymes (ACE); settings: ACE inhibition; cited from earlier work
[4] = molecular target: recombinant human neprilysin (human, UniProt P08473 53-750); assay: cell-based or functional assay
Sequence of recombinant human neprilysin (P08473 53-750 limits assumed): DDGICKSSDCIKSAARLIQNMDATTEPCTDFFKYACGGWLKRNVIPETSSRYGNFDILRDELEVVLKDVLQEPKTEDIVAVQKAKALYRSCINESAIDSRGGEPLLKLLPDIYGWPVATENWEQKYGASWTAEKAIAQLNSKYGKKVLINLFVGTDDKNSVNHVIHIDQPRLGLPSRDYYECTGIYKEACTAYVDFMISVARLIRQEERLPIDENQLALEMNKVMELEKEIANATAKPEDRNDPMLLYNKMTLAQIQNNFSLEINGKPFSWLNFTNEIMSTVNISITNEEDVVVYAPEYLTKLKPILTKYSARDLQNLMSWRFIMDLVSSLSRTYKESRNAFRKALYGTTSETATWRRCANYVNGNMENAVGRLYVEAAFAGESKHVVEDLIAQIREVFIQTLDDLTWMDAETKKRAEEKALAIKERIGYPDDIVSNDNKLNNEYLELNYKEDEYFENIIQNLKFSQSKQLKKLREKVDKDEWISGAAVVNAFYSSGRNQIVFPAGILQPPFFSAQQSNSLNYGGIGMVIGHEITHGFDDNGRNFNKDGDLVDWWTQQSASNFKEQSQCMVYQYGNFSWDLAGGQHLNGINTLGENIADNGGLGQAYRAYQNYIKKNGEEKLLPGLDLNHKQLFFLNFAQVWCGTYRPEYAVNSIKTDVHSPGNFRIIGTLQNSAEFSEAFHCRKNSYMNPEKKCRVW

CC(C)C[C@H](N)C(=O)N[C@@H](Cc1c[nH]c2ccccc12)C(=O)O [LW]
IC50 [1]: 84.8 µM | IC50 ([1]; dilutions in deionized water): 84.8 µM | intestinal transit in relation to RS group (rats): does not modify intestinal transit

CN(C)C(=O)C(CCN1CCC(O)(c2ccc(Cl)cc2)CC1)(c1ccccc1)c1ccccc1 [loperamide]
intestinal transit: distance of charcoal in relation to total small intestine length (D/L) (rats; 2 mg/Kg p.o., 30 minutes before charcoal, p<0.01 vs RS): 37.8 ± 3.49% | inhibition of intestinal transit (rats; 2 mg/Kg p.o., versus RS group, p<0.01): 37% | intestinal transit in relation to RS group (rats): delayed intestinal transit

CC(=O)SCC(Cc1ccccc1)C(=O)NCC(=O)OCc1ccccc1 (centres unmarked) [racecadotril]
severity of diarrhoeic process (AUC of the diarrhoea index) (female Wistar rats; LW 0.8 g/Kg, racecadotril 40 mg/Kg, L 6.5 g/Kg, 0-3 h and 0-8 h PI (FIG. 8), versus RD group): milder severity of diarrhoeic process than RD group | percentage of diarrhoeic defecations (ID≥2) in relation to the total of defecations (female Wistar rats; R 40 mg/Kg, 0-3 h and 0-8 h PI (FIG. 9)): lower in both studied period | water solubility [2]: poor water solubility

IPP
IC50 [3]: 5 to 9 µM

VLGPVRGPFP [SEQ ID NO: 1]
inhibition at 1260 µM ([1]; peptide concentration 1.26 x10^-3 M, 40 minutes at 37 °C): 64.8% | inhibition at 126 µM ([1]; peptide concentration 1.26 x10^-4 M, 40 minutes at 37 °C): 13.2% | inhibition at 12.6 µM ([1]; peptide concentration 1.26 x10^-5 M, 40 minutes at 37 °C): 1.49% | inhibition at 315 µM ([1]; peptide concentration 3.15 x10^-4 M, 40 minutes at 37 °C): 29.5% | inhibition at 630 µM ([1]; peptide concentration 6.30 x10^-4 M, 40 minutes at 37 °C): 46.6% | inhibition at 63 µM ([1]; peptide concentration 6.30 x10^-5 M, 40 minutes at 37 °C): 7.37% | inhibition at 90 µM ([1]; peptide concentration 9.00 x10^-5 M, 40 minutes at 37 °C): 9.41%

VPP
IC50 [3]: 5 to 9 µM

VLGPVRGPFP [peptide of SEQ ID NO: 1 (VLGPVRGPFP)]
IC50 of neprilysin inhibition (fluorogenic enzymatic assay) [4]: 713 µM

LW [peptide LW (dipeptide of formula (I) X1W, wherein X1 is leucine)]
IC50 of neprilysin inhibition (fluorogenic enzymatic assay, FRET substrate Mca-…[Dnp]-OH) [4]: 0.0269 mg/ml and 84.8 µM
